In ChEMBL document CHEMBL5465560, “Selectivity Literature for EUbOPEN Chemogenomic Library” (2024):

Key:
[1] = target: T1, Serine/threonine-protein kinase Sgk1 (Homo sapiens) (UniProt O00141); assay: Selectivity interaction (KinomeScan (DiscoverX)) EUB0000229b SGK1; details: at 10 µM
T1 sequence (whole entry): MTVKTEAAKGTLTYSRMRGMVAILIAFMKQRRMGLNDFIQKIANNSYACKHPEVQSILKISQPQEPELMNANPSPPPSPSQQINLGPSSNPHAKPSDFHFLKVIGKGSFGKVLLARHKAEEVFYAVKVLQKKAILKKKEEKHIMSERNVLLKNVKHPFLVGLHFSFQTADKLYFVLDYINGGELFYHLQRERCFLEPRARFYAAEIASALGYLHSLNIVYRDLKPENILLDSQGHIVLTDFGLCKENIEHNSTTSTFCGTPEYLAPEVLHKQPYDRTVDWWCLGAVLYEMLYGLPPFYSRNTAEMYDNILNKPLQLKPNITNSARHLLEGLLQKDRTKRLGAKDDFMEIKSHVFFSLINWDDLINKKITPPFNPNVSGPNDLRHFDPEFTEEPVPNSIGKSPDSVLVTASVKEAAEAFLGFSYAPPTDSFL

[2] = target: Mitogen-activated protein kinase kinase kinase 14 (Homo sapiens) (UniProt Q99558); assay: Selectivity interaction (KinomeScan (DiscoverX)) EUB0001079a MAP3K14; details: at 1 µM
[3] = target: Casein kinase I isoform gamma-3 (Homo sapiens) (UniProt Q9Y6M4); details: at 10 µM
[4] = target: T2, Phosphatidylinositol 4,5-bisphosphate 3-kinase catalytic subunit delta isoform (Homo sapiens) (UniProt O00329); assay: Selectivity interaction (KinomeScan (DiscoverX)) EUB0000695a PIK3CD; details: at 100 nM
T2 sequence (whole entry): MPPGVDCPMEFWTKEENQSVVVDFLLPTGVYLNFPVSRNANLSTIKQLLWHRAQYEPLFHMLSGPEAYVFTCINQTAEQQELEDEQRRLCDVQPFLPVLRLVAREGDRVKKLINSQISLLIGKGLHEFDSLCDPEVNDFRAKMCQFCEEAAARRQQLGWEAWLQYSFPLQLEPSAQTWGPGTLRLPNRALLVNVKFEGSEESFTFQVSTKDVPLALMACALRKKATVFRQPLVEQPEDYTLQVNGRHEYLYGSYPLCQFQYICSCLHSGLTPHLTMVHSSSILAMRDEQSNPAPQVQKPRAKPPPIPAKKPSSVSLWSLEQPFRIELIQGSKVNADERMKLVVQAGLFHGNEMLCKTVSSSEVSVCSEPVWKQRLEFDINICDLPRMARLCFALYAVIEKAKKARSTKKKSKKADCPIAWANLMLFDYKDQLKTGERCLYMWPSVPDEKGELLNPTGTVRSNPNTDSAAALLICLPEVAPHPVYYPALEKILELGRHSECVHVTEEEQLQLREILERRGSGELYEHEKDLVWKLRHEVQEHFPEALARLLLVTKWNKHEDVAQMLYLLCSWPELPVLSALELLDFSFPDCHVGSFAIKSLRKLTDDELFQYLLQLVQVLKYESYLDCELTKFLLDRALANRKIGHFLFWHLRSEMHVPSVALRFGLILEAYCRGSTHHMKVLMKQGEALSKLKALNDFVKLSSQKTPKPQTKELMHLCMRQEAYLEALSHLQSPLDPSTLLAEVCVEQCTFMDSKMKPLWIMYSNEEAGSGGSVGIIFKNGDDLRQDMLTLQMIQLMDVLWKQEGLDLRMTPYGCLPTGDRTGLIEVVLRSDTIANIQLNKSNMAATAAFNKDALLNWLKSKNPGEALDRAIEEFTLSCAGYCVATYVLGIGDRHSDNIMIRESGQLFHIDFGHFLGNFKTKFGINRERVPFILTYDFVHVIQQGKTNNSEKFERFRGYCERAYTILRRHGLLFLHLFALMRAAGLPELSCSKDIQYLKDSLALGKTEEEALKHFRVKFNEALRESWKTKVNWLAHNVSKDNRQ

[5] = target: T3, Serine/threonine-protein kinase RIO3 (Homo sapiens) (UniProt O14730); assay: Selectivity interaction (KinomeScan (DiscoverX)) EUB0000607a RIOK3; details: at 10 µM
T3 sequence (whole entry): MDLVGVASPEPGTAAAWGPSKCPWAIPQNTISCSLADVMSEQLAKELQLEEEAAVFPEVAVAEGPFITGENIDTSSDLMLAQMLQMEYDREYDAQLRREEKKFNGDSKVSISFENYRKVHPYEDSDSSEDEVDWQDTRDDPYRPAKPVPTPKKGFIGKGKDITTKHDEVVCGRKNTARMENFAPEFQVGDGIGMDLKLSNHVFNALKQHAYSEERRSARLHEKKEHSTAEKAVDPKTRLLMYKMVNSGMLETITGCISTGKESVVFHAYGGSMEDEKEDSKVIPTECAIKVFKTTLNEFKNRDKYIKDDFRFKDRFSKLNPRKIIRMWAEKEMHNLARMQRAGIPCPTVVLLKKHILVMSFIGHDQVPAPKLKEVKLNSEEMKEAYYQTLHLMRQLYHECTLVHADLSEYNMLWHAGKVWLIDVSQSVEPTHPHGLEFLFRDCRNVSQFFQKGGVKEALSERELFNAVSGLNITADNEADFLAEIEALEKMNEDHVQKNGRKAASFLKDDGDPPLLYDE

[6] = target: Tau-tubulin kinase 2 (Homo sapiens) (UniProt Q6IQ55); assay: Selectivity interaction (ProQinase) EUB0000171b TTBK2
Tau-tubulin kinase 2 (Homo sapiens), sequence (Q6IQ55 whole entry): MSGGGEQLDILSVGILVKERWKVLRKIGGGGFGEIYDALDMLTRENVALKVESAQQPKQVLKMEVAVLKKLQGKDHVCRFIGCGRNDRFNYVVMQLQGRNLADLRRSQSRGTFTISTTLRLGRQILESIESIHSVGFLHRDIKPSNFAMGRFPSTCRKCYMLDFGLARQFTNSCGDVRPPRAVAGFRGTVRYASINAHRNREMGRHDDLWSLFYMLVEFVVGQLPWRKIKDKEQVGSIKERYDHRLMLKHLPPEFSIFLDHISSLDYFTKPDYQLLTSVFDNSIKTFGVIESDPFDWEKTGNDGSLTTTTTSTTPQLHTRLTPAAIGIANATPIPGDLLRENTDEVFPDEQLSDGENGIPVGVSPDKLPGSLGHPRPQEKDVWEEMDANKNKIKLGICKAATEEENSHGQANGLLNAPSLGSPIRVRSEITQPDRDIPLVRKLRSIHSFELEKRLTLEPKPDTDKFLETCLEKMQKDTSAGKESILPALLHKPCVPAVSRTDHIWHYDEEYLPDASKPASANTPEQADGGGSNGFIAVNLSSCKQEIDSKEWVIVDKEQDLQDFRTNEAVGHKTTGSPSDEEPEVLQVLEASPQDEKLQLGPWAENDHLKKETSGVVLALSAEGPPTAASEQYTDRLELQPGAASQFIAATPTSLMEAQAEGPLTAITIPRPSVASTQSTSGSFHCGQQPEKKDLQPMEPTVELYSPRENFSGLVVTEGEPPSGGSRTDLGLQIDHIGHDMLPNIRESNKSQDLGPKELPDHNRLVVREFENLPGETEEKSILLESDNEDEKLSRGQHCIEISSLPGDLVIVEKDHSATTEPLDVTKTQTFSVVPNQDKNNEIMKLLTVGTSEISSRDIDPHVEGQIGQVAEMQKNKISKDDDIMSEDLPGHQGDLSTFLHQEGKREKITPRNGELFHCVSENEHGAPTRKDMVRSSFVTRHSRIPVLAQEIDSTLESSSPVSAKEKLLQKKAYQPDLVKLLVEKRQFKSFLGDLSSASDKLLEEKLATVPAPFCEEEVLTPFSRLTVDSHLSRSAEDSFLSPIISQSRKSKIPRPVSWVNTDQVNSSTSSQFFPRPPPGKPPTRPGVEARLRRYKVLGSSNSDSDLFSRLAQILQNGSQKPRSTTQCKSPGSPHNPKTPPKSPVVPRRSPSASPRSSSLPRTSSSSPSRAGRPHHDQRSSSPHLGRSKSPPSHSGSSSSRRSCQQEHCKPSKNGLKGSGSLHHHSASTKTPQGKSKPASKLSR

Casein kinase I isoform gamma-3 (Homo sapiens), sequence (Q9Y6M4 whole entry, looked up, canonical isoform): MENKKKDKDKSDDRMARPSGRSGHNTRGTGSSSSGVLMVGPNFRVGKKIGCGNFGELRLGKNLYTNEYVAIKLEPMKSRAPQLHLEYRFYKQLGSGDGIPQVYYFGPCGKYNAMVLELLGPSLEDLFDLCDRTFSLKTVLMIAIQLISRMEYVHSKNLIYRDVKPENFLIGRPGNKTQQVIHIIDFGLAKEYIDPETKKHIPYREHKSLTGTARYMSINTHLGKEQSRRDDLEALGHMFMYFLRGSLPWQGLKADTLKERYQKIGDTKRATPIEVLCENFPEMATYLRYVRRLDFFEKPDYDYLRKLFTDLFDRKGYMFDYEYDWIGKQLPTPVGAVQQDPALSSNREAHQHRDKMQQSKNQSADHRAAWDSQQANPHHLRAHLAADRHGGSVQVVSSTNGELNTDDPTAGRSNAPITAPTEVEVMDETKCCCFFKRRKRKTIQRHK
Mitogen-activated protein kinase kinase kinase 14 (Homo sapiens), sequence (Q99558 whole entry, looked up, canonical isoform): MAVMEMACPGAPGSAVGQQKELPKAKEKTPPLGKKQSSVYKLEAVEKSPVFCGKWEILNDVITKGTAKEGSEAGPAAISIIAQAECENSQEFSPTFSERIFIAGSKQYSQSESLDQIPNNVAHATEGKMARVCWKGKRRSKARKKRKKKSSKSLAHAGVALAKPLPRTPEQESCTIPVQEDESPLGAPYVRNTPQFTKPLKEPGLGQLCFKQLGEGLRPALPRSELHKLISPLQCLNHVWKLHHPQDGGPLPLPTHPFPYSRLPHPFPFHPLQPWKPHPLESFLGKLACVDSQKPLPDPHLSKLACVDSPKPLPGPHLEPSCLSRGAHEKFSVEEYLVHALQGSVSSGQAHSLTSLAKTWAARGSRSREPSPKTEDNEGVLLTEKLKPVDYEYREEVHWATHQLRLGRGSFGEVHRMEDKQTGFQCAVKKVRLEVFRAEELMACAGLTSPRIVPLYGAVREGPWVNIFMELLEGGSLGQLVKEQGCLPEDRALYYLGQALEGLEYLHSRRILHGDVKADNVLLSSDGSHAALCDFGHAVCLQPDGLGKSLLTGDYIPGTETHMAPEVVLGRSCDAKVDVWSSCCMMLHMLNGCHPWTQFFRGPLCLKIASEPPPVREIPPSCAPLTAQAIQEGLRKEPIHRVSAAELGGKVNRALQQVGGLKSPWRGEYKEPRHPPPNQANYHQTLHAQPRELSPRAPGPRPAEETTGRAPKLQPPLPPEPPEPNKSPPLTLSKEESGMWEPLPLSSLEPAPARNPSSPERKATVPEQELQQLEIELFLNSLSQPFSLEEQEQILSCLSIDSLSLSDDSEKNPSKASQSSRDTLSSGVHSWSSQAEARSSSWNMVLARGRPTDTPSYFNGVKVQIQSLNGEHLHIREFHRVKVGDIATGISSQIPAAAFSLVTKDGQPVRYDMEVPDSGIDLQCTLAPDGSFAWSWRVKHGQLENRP

## COc1cc(N(C)c2ccnc3ccc(C(F)(F)F)cc23)cc(OC)c1OC
[1]
  % binding: 97%

## Nc1cnc(N2CCc3cc(S(=O)(=O)Nc4c(F)cc(Cl)cc4F)cc(N4CCCC4=O)c32)nc1 [TP-020n]
[2]
  % of control: 75%

## Cc1cc([C@@H](C)Nc2ccccc2C(=O)O)c2nc(N3CCOCC3)cc(=O)n2c1 [AZD-6482]
[3]
  % of control: 100%

## Cc1cc(F)c(C(=O)Nc2cccc(-c3nncn3C(C)C)n2)cc1-n1cnc(C2CC2)c1
[4]
  % of control: 92%

## CNC(=O)Nc1ccc(-c2nc(N3CC4CCC(C3)O4)c3cnn(C4CCC5(CC4)OCCO5)c3n2)cc1
[5]
  % of control: 100%

## C=CC(=O)Nc1cccc(C(=O)Nc2ccc(Nc3cc(-c4[nH]c(SC)nc4C)ccn3)cc2)c1
[6]; at 1 µM
  % of control: 94%
[6]; at 5 µM
  % of control: 93%
